In US11214563B2 (JANSSEN PHARMACEUTICA NV, priority 2019, dated 2022) one finds IC50 data, which are given here for 16 molecules.

The target of this assay is human GluN1/GluN2B NMDA receptors (Homo sapiens (Human), UniProt Q13224). In words: Cell-based calcium flux (FLIPR) assay on cloned human NR1/NR2B ion channels expressed in mammalian cells. As to conditions: standard assay, glutamate ~EC40, 10 μM glycine. As to the method:
Effects of Test Articles on Cloned Human NR1/NR2B Ion Channels Expressed in Mammalian Cells
NMDA receptors are ion channels that are highly permeable to Ca^2+ ions, rendering it possible to monitor NMDA receptor function using cell-based calcium flux assay. In this assay, co-agonists glutamate and glycine are added to cells heterologously expressing human GluN1/GluN2B NMDA receptors to initiate cellular Ca^2+ influx. The time course of the changes in intracellular calcium is measured using a fluorescent dye and a FLIPR (Fluorometric Imaging Plate Reader) device.
Twenty four hours before measurements, the expression of the NMDA receptors in the stable cell line is induced with Tet-On inducible system in the presence of a non-selective NMDA receptor blocker. On the day of the experiment, cell culture media is carefully washed and the cells are loaded with Calcium 5 Dye Kit (Molecular Devices) in dye loading buffer containing 137 mM NaCl, 4 mM KCl, 2 mM CaCl2), 0.5 mM MgCl2(standard assay) or 1.5 mM MgCl2 (HTS assay), 10 mM HEPES and 5 mM D-glucose; pH 7.4. After 1 h incubation at the room temperature, the dye is washed away with the assay buffer (137 mM NaCl (standard assay) or 150 mM (HTS assay), 4 mM KCl (standard assay) or 3 mM (HTS assay), 2 mM CaCl2), 0.01 mM EDTA, 10 mM HEPES and 5 mM D-glucose; pH 7.4) In the FLIPR TETRA reader, various concentrations of the test compounds are added to the cells for 5 min while fluorescence is monitored to detect potential agonist activity. Next, co-agonists, glutamate and glycine are added for another 5 minutes. The concentration of glutamate corresponding to ˜EC40 (standard assay) or EC40 (HTS assay) is used to maximize the assay's signal window and ability to detect NMDA receptor antagonists and negative allosteric modulators. A saturating concentration (10 μM) of glycine is also present in the assay. A non-selective NMDA receptor antagonist, (+)MK-801 is used as a positive control for antagonist activity. The fluorescent signal in the presence of test compounds is quantified and normalized to the signal defined by the appropriate control wells.

Each structure is given as a SMILES string.

Chain of human GluN1/GluN2B NMDA receptors (Q13224 27-1484, other chains not shown): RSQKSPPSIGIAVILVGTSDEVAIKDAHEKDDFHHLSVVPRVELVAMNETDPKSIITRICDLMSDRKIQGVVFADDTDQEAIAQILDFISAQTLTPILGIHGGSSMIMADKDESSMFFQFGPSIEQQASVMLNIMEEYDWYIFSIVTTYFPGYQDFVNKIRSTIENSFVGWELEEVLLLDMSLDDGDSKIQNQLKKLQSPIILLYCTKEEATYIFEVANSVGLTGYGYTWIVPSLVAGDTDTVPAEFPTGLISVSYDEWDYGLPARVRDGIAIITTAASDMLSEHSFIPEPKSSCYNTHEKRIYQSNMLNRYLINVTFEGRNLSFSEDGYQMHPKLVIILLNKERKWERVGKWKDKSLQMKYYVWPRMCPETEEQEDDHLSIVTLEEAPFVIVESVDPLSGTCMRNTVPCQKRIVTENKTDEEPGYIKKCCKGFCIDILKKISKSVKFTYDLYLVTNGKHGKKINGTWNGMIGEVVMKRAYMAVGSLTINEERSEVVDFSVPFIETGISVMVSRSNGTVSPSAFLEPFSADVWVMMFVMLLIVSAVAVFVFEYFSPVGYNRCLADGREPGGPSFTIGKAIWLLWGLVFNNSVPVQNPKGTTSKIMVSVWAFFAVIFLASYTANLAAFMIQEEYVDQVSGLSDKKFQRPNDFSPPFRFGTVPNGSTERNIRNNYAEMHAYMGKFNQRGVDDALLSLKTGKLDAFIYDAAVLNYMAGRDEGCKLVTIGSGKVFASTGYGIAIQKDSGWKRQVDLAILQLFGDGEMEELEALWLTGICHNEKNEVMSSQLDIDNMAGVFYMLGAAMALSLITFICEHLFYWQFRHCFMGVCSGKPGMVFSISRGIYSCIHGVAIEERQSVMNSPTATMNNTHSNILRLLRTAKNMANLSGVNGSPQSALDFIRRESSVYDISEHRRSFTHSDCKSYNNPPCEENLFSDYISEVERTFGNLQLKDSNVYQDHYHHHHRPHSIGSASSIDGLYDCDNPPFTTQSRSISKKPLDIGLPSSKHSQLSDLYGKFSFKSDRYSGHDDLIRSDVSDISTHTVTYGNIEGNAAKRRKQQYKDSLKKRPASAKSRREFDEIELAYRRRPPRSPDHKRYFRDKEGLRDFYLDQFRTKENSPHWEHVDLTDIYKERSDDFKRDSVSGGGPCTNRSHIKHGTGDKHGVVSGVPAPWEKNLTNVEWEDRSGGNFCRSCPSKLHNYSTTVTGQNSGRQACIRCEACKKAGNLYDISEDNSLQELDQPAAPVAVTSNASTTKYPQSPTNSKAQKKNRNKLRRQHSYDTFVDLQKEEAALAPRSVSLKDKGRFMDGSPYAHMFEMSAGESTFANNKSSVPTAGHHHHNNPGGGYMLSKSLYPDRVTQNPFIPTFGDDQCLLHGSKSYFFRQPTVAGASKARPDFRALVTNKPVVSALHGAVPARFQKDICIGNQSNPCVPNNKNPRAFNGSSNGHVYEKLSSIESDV

Turning to `Cc1cc(-c2cnc3cnn(CC(=O)N(C)C)c3n2)ccc1Cl` [Example 7], the IC50 was 117 nM.
For `Cc1cc(-c2cnc3cnn(CC(=O)N(C)C)c3n2)ccc1Cl` [Example 8], the IC50 amounted to 134 nM.
As to `COc1ccc(-c2cnc3cnn(CC(=O)N(C)C)c3n2)cc1Cl` [Example 9, 2-[6-(3-Chloro-4-methoxy-phenyl)pyrazolo[3,4-b]pyrazin-1-yl]-N,N-dimethyl-acetamide], the IC50 came out at 584 nM.
The value for `CN(C)C(=O)Cn1ncc2ncc(-c3ccc(F)c(C(C)(F)F)c3)nc21` [Example 13, 2-[6-[3-(1,1-Difluoroethyl)-4-fluoro-phenyl]pyrazolo[3,4-b]pyrazin-1-yl]-N,N-dimethyl-acetamide] was 146 nM.
`CN(C)C(=O)Cn1ncc2ncc(-c3ccc(Cl)c(C(C)(F)F)c3)nc21` [Example 14, 2-[6-[4-Chloro-3-(1,1-difluoroethyl)phenyl]pyrazolo[3,4-b]pyrazin-1-yl]-N,N-dimethyl-acetamide]: the IC50 is 149 nM.
As for `CN(C)C(=O)Cn1ncc2ncc(-c3ccc(Cl)c(C(F)(F)F)c3)nc21` [Example 15, 2-[6-[4-Chloro-3-(trifluoromethyl)phenyl]pyrazolo[3,4-b]pyrazin-1-yl]-N,N-dimethyl-acetamide], the IC50 came out at 272 nM.
The value for `CN(C)C(=O)Cn1ncc2ncc(-c3ccc(OC(F)F)c(F)c3)nc21` [Example 17, 2-[6-[4-(Difluoromethoxy)-3-fluoro-phenyl]pyrazolo[3,4-b]pyrazin-1-yl]-N,N-dimethyl-acetamide] was 859 nM; that for `CN(C)C(=O)Cn1ncc2ncc(-c3ccc(OC(F)(F)F)c(Cl)c3)nc21` [Example 19, 2-[6-[3-Chloro-4-(trifluoromethoxy)phenyl]pyrazolo[3,4-b]pyrazin-1-yl]-N,N-dimethyl-acetamide] was 1040 nM; that for `Cc1c(F)ccc(-c2cnc3cnn(CC(=O)N(C)C)c3n2)c1F` [Example 21, 2-[6-(2,4-Difluoro-3-methyl-phenyl)pyrazolo[3,4-b]pyrazin-1-yl]-N,N-dimethyl-acetamide] was 34 nM.
The value for `CN(C)C(=O)Cn1ncc2ncc(-c3ccc(F)c(F)c3F)nc21` [Example 23, N,N-Dimethyl-2-[6-(2,3,4-trifluorophenyl)pyrazolo[3,4-b]pyrazin-1-yl]acetamide] was 962 nM; that for `CC(F)(F)c1cc(-c2cnc3cnn(CC(=O)N4CCC4)c3n2)ccc1Cl` [Example 26, 1-(Azetidin-1-yl)-2-[6-[4-chloro-3-(1,1-difluoroethyl)phenyl]pyrazolo[3,4-b]pyrazin-1-yl]ethanone] was 140 nM.
As for `O=C(Cn1ncc2ncc(-c3ccc(Cl)c(OC(F)F)c3)nc21)N1CCC1` [Example 29, 1-(Azetidin-1-yl)-2-[6-[4-chloro-3-(difluoromethoxy)phenyl]pyrazolo[3,4-b]pyrazin-1-yl]ethanone], the figure is 69 nM; as for `CC1CN(C(=O)Cn2nc(F)c3ncc(-c4ccc(F)c(C(F)F)c4)nc32)C1` [Example 31, 2-[6-[3-(Difluoromethyl)-4-fluoro-phenyl]-3-fluoro-pyrazolo[3,4-b]pyrazin-1-yl]-1-(3-methylazetidin-1-yl)ethanone], 196 nM; as for `O=C(Cn1nc(F)c2ncc(-c3ccc(F)c(C(F)F)c3)nc21)N1CC(F)C1` [Example 33, 2-[6-[3-(Difluoromethyl)-4-fluoro-phenyl]-3-fluoro-pyrazolo[3,4-b]pyrazin-1-yl]-1-(3-fluoroazetidin-1-yl)ethanone], 77 nM.
On to `CC1CN(C(=O)Cn2ncc3ncc(-c4ccc(Cl)c(C(C)(F)F)c4)nc32)C1` [Example 34, 2-[6-[4-Chloro-3-(1,1-difluoroethyl)phenyl]pyrazolo[3,4-b]pyrazin-1-yl]-1-(3-methylazetidin-1-yl)ethanone], for which the IC50 stood at 408 nM.
On to `CC(F)(F)c1cc(-c2cnc3cnn(CC(=O)N4CC(F)C4)c3n2)ccc1Cl` [Example 35, 2-[6-[4-Chloro-3-(1,1-difluoroethyl)phenyl]pyrazolo[3,4-b]pyrazin-1-yl]-1-(3-fluoroazetidin-1-yl)ethanone], for which the IC50 is 212 nM.
